Assay results from PubChem BioAssay AID1963421 (Molecular Pharmacology Branch, DTP, NCI, 2024).

Test system: 519858-162-T-J1-PDC complex spheroid growth, % test/control
Assay: Anticancer human tumor 519858-162-T-J1-PDC patient-derived colon adenocarcinoma cell line growth inhibition [Asc]
Details: for IC50: curve of first compound; for viability, T/C: stronger effect = lower value
Experimental: Multicellular complex tumor spheroid response to apoptosis pathway targeting inhibitors Alrizomadlin, Pelcitoclax, and Dasminapant in combination with a variety of drugs and investigational agents in selected tumor cell lines
The MDM2 inhibitor alrizomadlin, the Bcl-2/Bcl-xL inhibitor pelcitoclax, and the IAPs inhibitor dasminapant were evaluated both individually and in combination with standard of care and investigational anticancer small molecules within a complex spheroid model of solid tumors. . Complex spheroids include a stromal component modeled by human endothelial cells (HUVEC) and fibroblasts modeled by human mesenchymal stem cells (MSCs). The concentration ranges selected for each drug and investigational agent were based upon clinically achievable concentrations if the clinical Cmax of the agent was known.
Compounds. The drugs and investigational agents: alrizomadlin (APG-115; NSC831270), pelcitoclax (APG-1252; NSC835773), dasminapant (APG-1387;NSC834197), TAK-243 (NSC785004), copanlisib (NSC809693), olaparib (NSC753686), talazoparib (NSC767125), cobimetinib (NSC 768068), eltanexor (KPT-8602, NSC 794443), abemaciclib (NSC 768073), sotorasib (NSC818433), adagrasib (NSC 831453), MRTX-1133 (NSC 836407), Iadademestat (ORY1001, NSC 806812), and RMC-4630 (NSC839698), were obtained from the NCI Developmental Therapeutics Program Chemical Repository. The FDA-approved anticancer drug set is available from the Developmental Therapeutics Program at https://dtp.cancer.gov/organization/dscb/obtaining/available plates.htm. […] The stock solutions were prepared in dimethyl sulfoxide (DMSO, Sigma-Aldrich, St. Louis, MO, cat. D2650) at 800-fold the tested concentration and stored at -70 degrees C prior to their use. All drugs and investigational agents were tested over a range starting from a high concentration at or near the clinical Cmax and decreasing in half-log increments. If the clinical Cmax for an agent had not been determined, the highest concentration tested was 10 microM.
The patient-derived cancer (PDC) cell lines include five colon adenocarcinomas: 186277-243-T-J2-PDC, 616215-338-R-J1-PDC, 439559-082-T-J2-PDC, 463943-066-T-J2-PDC, and 519858-162-T-J1-PDC; three pancreatic carcinomas: 323965-272-R-J2-PDC, 521955-158-R6-J3-PDC, and 521955-158-R2-J5-PDC; two uterine sarcomas: 327498-152-R-J2-PDC and 993429-296-R-J1-PDC; two rhabdomyosarcomas: 755483-174-R-J1-PDC and 772245-204-R-J1-PDC; two soft tissue sarcomas: 126254-015-R-J1-PDC and 494315-158-R-J1-PDC; two malignant fibrous histiocytomas: 317291-083-R-J1-PDC and 596521-263-R-J1-PDC; two breast carcinomas: 171881-019-R-J1-PDC and 885512-296-R-J2-PDC; and one ovarian carcinoma: 6556581-035-R-J-PDC were obtained from the NCI PDMR, (https://pdmr.cancer.gov). The established cell lines HSSY-2 synovial sarcoma (RRID:CVCL 8719), SYO-1 synovial sarcoma (RRID:CVCL_7146), MPNST malignant peripheral neural sheath tumor were obtained from the Sloan Kettering Institute. The following established cell lines were purchased from the American Type Culture Collection (ATCC, Manassas, VA), Sor the received from the NCI repository:, PANC-1 pancreatic carcinoma (CRL-1469, RRID:CVCL_0480), OVCAR-5 ovarian carcinoma (RRID:CVCL_1628), OVCAR-8 ovarian carcinoma (RRID:CVCL_1629), , MCF-7 breast carcinoma (CRL-12584, RRID:CVCL_0031), MDA-MB-231 breast carcinoma (CRL-12532, RRID:CVCL_0062), NCI-H1876 small cell lung carcinoma (CRL-5902, RRID:CVCL_1503), NCI-H510A small cell lung carcinoma (HTB-184, RRID:CVCL_1565), NCI-H1417 (CRL-5869, RRID:CVCL_1469), and NCI-H196 small cell lung carcinoma (CRL-5823, RRID:CVCL_1509). Dr. Peter Houghton (Greehey Children's Cancer Research Institute, University of Texas Health Science Center, San Antonio, TX) provided Rh-18 rhabdomyosarcoma (RRID:CVCL_1659). Pooled donor human umbilical vein endothelial cells (HUVEC, Lonza, cat. CC-2519) and human mesenchymal stem cells (hMSC, Lonza, cat. PT-2501) were purchased from Lonza (Walkersville, MD).
Cell Culture. […]
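Further: seven day drug exposure begun three days after spheroid seeding.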
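Wherever viability, T/C is given: 100% = DMSO vehicle wells and lower values mean less viable spheroid.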

NC1CCC(NC2CC2c2ccccc2)CC1 (configuration not stated) + Cc1c(S(C)(=O)=O)c(-c2cc(F)cc(N3CCN(c4ccc(NS(=O)(=O)c5ccc(NC(CCN6CCC(C(=O)OCCCP(=O)(O)O)CC6)CSc6ccccc6)c(S(=O)(=O)C(F)(F)F)c5)cc4)CC3)c2)c(-c2ccc(Cl)cc2)n1C(C)C
IC50 (second compound 0.0316 µM): > 100 nM
IC50 (second compound 0.1 µM): > 100 nM
IC50 (second compound 0.316 µM): > 100 nM
IC50 (second compound 1 µM): > 100 nM
IC50 (second compound 3.16 µM): > 100 nM
IC50 (second compound 10 µM): > 100 nM
viability, T/C (second compound 0.0316 µM, first compound 0.000316 µM): 106%
viability, T/C (second compound 0.0316 µM, first compound 0.001 µM): 128%
viability, T/C (second compound 0.0316 µM, first compound 0.00316 µM): 116%
viability, T/C (second compound 0.0316 µM, first compound 0.01 µM): 137%
viability, T/C (second compound 0.0316 µM, first compound 0.0316 µM): 115%
viability, T/C (second compound 0.0316 µM, first compound 0.1 µM): 70.6%
viability, T/C (second compound 0.1 µM, first compound 0.000316 µM): 134%
viability, T/C (second compound 0.1 µM, first compound 0.001 µM): 122%
viability, T/C (second compound 0.1 µM, first compound 0.00316 µM): 92.7%
viability, T/C (second compound 0.1 µM, first compound 0.01 µM): 94.8%
viability, T/C (second compound 0.1 µM, first compound 0.0316 µM): 79.9%
viability, T/C (second compound 0.1 µM, first compound 0.1 µM): 98.3%
viability, T/C (second compound 0.316 µM, first compound 0.000316 µM): 65.3%
viability, T/C (second compound 0.316 µM, first compound 0.001 µM): 109%
viability, T/C (second compound 0.316 µM, first compound 0.00316 µM): 142%
viability, T/C (second compound 0.316 µM, first compound 0.01 µM): 94%
viability, T/C (second compound 0.316 µM, first compound 0.0316 µM): 85.5%
viability, T/C (second compound 0.316 µM, first compound 0.1 µM): 107%
viability, T/C (second compound 1 µM, first compound 0.000316 µM): 96.3%
viability, T/C (second compound 1 µM, first compound 0.001 µM): 74.7%
viability, T/C (second compound 1 µM, first compound 0.00316 µM): 99.4%
viability, T/C (second compound 1 µM, first compound 0.01 µM): 60.3%
viability, T/C (second compound 1 µM, first compound 0.0316 µM): 134%
viability, T/C (second compound 1 µM, first compound 0.1 µM): 77.9%
viability, T/C (second compound 3.16 µM, first compound 0.000316 µM): 72.6%
viability, T/C (second compound 3.16 µM, first compound 0.001 µM): 113%
viability, T/C (second compound 3.16 µM, first compound 0.00316 µM): 97.3%
viability, T/C (second compound 3.16 µM, first compound 0.01 µM): 83.6%
viability, T/C (second compound 3.16 µM, first compound 0.0316 µM): 115%
viability, T/C (second compound 3.16 µM, first compound 0.1 µM): 116%
viability, T/C (second compound 10 µM, first compound 0.000316 µM): 69.7%
viability, T/C (second compound 10 µM, first compound 0.001 µM): 79%
viability, T/C (second compound 10 µM, first compound 0.00316 µM): 60.6%
viability, T/C (second compound 10 µM, first compound 0.01 µM): 77.1%
viability, T/C (second compound 10 µM, first compound 0.0316 µM): 55.4%
viability, T/C (second compound 10 µM, first compound 0.1 µM): 69.9%
